This note sets out measurements from US4667019A, “Azo dyes containing a triazolyl group for use in liquid crystalline materials” (Kernforschungszentrum Karlsruhe GmbH, priority 1986, dated 1987).

What all share (assay type): physicochemical
The nature of series [1]: degree of order S (dichroic ratio CR) in ZLI 1840 at room temperature. Also on record: key: S = (CR-1)/(CR+2), with CR = E∥/E⊥ dichroic ratio. The following applies: ZLI 1840 wide-range mixture (Merck). As to the method: (§1) The degrees of order S and the solubilities L, both measured at room temperature in the ZLI 1840 wide-range mixture from Merck, are summarized in Table 1 for Examples 1-18. The degrees of order S and the solubilities L for Examples 19-32, measured at room temperature in the […] liquid crystal mixture from Merck, are summarized in Table 3.
(§2) The degree of order S was determined in accordance with the known equation S=(CR-1)/(CR+2), using commercial measuring cells with homogeneous edge orientation. The dichroic ratio CR was determined by measuring the extinctions E^.parallel. (measured using polarized light parallel to the preferred direction of the nematic phase) and E^.perp. (measured using polarized light perpendicular to the preferred direction of the nematic phase) and using the relationship CR=E^.parallel. /E^.perp. the dye concentration being chosen so that E^.parallel. was from 1 to 2. The measurements were carried out using a Beckman Acta CIII spectrophotometer.

Series [2] is described as follows: solubility L in ZLI 1840 at room temperature. The settings on record: ZLI 1840 (Merck), stirred 1 week. The procedure: as §1
(§3) The solubility was determined as follows: 50 mg of the particular dye were stirred into 1 ml of ZLI 1840 at room temperature for 1 week, and saturation of the soluton was determined by comparing extinction values.

The nature of series [3]: light-stability, high-speed exposure of the measuring cell in a Suntest. The following applies: 25° C. As to the method:
The light-stability was determined by high-speed exposure of the measuring cell in a Suntest from Hanau, at 25° C. In this procedure, the decrease in E^.parallel. was measured. The initial extinction E^.parallel. and the exposure time E^.parallel.80% after which E^.parallel. has decreased to 80% are shown in Table 2 for Examples 5, 8, 9, 10, 11, 12, 13, 14 and 15. The percentage change in E^.parallel.0 is plotted against the exposure time in FIGS. 2, 3 and 4 for Examples 8, 11 and 15.

Series [4] can be described thus: degree of order S (dichroic ratio CR) in ZLI 1957/5 at room temperature. The following applies: ZLI 1957/5 liquid crystal mixture (Merck). As to the method: as §1, §2
A short description of series [5]: solubility L in ZLI 1957/5 at room temperature. The following applies: ZLI 1957/5 liquid crystal mixture (Merck). The procedure: as §1, §3

Structures are written as SMILES. Some results are limits rather than exact numbers.

As for `Cc1ccc2nn(-c3ccc(N=Nc4cc(C)c(N=Nc5ccc(N(C)C)cc5)cc4C)cc3)nc2c1` [Example 10], the “Degree of order S” value in series [1] is recorded as 0,73. Besides, the “Solubility L” value in series [2] is given as 0,6%. For the same compound, the “exposure time E∥80% after which E∥ has decreased to 80%” value in series [3] came out at 147 h.
As to `Cc1ccc2nn(-c3ccc(N=Nc4cc(C)c(N=Nc5ccc(OCc6ccccc6)cc5C)cc4C)cc3C)nc2c1` [Example 17], in series [1], the “Degree of order S” value is recorded as 0,74. Further, the “Solubility L” value in series [2] is 0,6%.
The corresponding values for `Cc1nn(-c2cc(Br)c(N=Nc3ccc(N=Nc4ccc(N(C)C)cc4)cc3)c(Br)c2)nc1C` [Example 6] are 0,61 and 1,8%.
The corresponding values for `CCCCN(C)c1ccc(N=Nc2ccc(N=Nc3ccc(-n4nc5ccc(C)cc5n4)c(C)c3)c(C)c2)cc1` [Example 24] are 0,77 and above 5%.
Turning to `Cc1ccc2nn(-c3ccc(N=Nc4ccc(N=Nc5ccc(N(C)CC(C)C)cc5C)cc4C)cc3C)nc2c1` [Example 28], the “Degree of order S” value in series [4] is recorded as 0,72. Further, the “Solubility L” value in series [5] was 1,5%.
Consider `CCCCc1ccc2nn(-c3ccc(N=Nc4ccc(N=Nc5ccc(N(C)C)cc5)cc4C)cc3C)nc2c1` [Example 15], for which the “Degree of order S” value in series [1] is listed as 0,79. Besides, the “Solubility L” value in series [2] is reported as 2,8%. In addition, in series [3], the “exposure time E∥80% after which E∥ has decreased to 80%” value is listed as 68 h.
In the case of `Cc1ccc2nn(-c3ccc(N=Nc4ccc(N=Nc5ccc(NCc6ccccc6)cc5)cc4C)cc3C)nc2c1` [Example 23], the “Degree of order S” value in series [1] is recorded as 0,79. In addition, the “Solubility L” value in series [2] was 1,9%.
The corresponding values for `Cc1nn(-c2ccc(N=Nc3ccc(N=Nc4ccc(N(C)C)cc4)cc3)cc2)nc1C` [Example 3] are 0,74 and 0,4%.
On to `CCCCN(C)c1ccc(N=Nc2cc(C)c(N=Nc3ccc(-n4nc5ccc(C)cc5n4)c(C)c3)cc2C)cc1` [Example 20], for which, in series [4], the “Degree of order S” value is given as 0,74. The “Solubility L” value in series [5] is listed as 2,0%.
Turning to `COc1cc(N=Nc2ccc(N(C)C)cc2)ccc1N=Nc1ccc(-n2nc(C)c(C)n2)cc1` [Example 4], in series [1], the “Degree of order S” value is given as 0,70. In series [2], the “Solubility L” value is recorded as 0,7%.
The corresponding values for `CCC1CCC(c2ccc(COc3ccc(N=Nc4cc(C)c(N=Nc5ccc(-n6nc7ccc(C)cc7n6)c(C)c5)cc4C)c(C)c3)cc2)CC1` (stereo not shown) [Example 18] are 0,77 and 2,9%.
Consider `Cc1nn(-c2cc(C#N)c(N=Nc3ccc(N=Nc4ccc(N(C)C)cc4)cc3)c(C#N)c2)nc1C` [Example 7], for which the “Degree of order S” value in series [1] was 0,74. In addition, the “Solubility L” value in series [2] is given as < 0,1%.
For `CCCCN(CCCC)c1ccc(N=Nc2ccc(N=Nc3ccc(-n4nc5ccc(C)cc5n4)c(C)c3)c(C)c2)cc1` [Example 13], the “Degree of order S” value in series [1] was 0,74. The “Solubility L” value in series [2] was above 5%. Besides, the “exposure time E∥80% after which E∥ has decreased to 80%” value in series [3] amounted to 97 h.
As to `CCCCc1ccc2nn(-c3ccc(N=Nc4cc(C)c(N=Nc5ccc(N(C)C)c6ccccc56)cc4C)cc3C)nc2c1` [Example 32], in series [1], the “Degree of order S” value was 0,65. For the same compound, the “Solubility L” value in series [2] is given as 0,1%.
The corresponding values for `Cc1ccc2nn(-c3ccc(N=Nc4ccc(N=Nc5ccc(N(C)C)cc5C)cc4C)cc3C)nc2c1` [Example 26] are 0,76 and 2,0%.
Turning to `CCCCN(C)c1ccc(N=Nc2cc(OC)c(N=Nc3ccc(-n4nc5ccc(C)cc5n4)c(C)c3)cc2OC)cc1` [Example 30], the “Degree of order S” value in series [4] is on record as 0,67. In addition, the “Solubility L” value in series [5] is reported as 0,3%.
As for `Cc1ccc2nn(-c3ccc(N=Nc4ccc(N=Nc5ccc(N(C)Cc6ccccc6)cc5)cc4C)cc3C)nc2c1` [Example 25], in series [1], the “Degree of order S” value is reported as 0,76. For the same compound, the “Solubility L” value in series [2] is 1,9%.
On to `CCCCc1ccc2nn(-c3ccc(N=Nc4cc(C)c(N=Nc5ccc(NC)c6ccccc56)cc4C)cc3C)nc2c1` [Example 31], for which the “Degree of order S” value in series [1] was 0,70. For the same compound, the “Solubility L” value in series [2] is listed as 2,0%.
The corresponding values for `CCCCOc1ccc(N=Nc2ccc(N=Nc3ccc(-n4nc5ccc(C)cc5n4)c(C)c3)c(C)c2)c(C)c1` [Example 16] are 0,74 and 0,5%.
The corresponding values for `CCCCOC(=O)c1ccc2nn(-c3ccc(N=Nc4cc(C)c(N=Nc5ccc(N(C)C)cc5)cc4C)cc3C)nc2c1` [Example 19] are 0,76 and 0,3%.
The corresponding values for `CCCCc1ccc2nn(-c3ccc(N=Nc4ccc(N=Nc5ccc(N(C)C)cc5C)cc4C)cc3C)nc2c1` [Example 27] are 0,75 and 3,9%.
Take `CCCCc1ccc2nn(-c3ccc(N=Nc4cc(C)c(N=Nc5ccc(N(C)C)cc5)cc4C)cc3C)nc2c1` [Example 14]: the “Degree of order S” value in series [1] was 0,76. Also, in series [2], the “Solubility L” value was > 2,3%. For the same compound, the “exposure time E∥80% after which E∥ has decreased to 80%” value in series [3] worked out at 111 h.
For the compound `Cc1ccc2nn(-c3ccc(N=Nc4ccc(N=Nc5ccc(N(C)C)cc5)cc4C)cc3C)nc2c1` [Example 21], the “Degree of order S” value in series [1] is recorded as 0,76. Besides, in series [2], the “Solubility L” value is recorded as 2,8%.
With `CCOC(=O)c1nn(-c2ccc(N=Nc3cc(C)c(N=Nc4ccc(N(C)C)cc4)cc3C)cc2)nc1C` [Example 5], in series [1], the “Degree of order S” value is 0,73. For the same compound, the “Solubility L” value in series [2] is recorded as 0,2%. Besides, the “exposure time E∥80% after which E∥ has decreased to 80%” value in series [3] worked out at 101 h.
The corresponding values for `Cc1ccc2nn(-c3cc(C)c(N=Nc4cc(C)c(N=Nc5ccc(N(C)C)cc5)cc4C)cc3C)nc2c1` [Example 9] are 0,76, 0,5% and 111 h.
With `Cc1ccc2nn(-c3ccc(N=Nc4ccc(N=Nc5ccc(N)cc5C)cc4C)cc3C)nc2c1` [Example 11], the “exposure time E∥80% after which E∥ has decreased to 80%” value in series [3] worked out at 170 h.
Take `CCOC(=O)c1nn(-c2ccc(N=Nc3ccc(N=Nc4ccc(N(C)C)cc4)c4ccccc34)cc2)nc1C` [Example 8]: in series [1], the “Degree of order S” value is recorded as 0,74. Further, in series [2], the “Solubility L” value was 0,5%. In addition, the “exposure time E∥80% after which E∥ has decreased to 80%” value in series [3] is 27,5 h.
On to `Cc1nn(-c2ccc(N=Nc3ccc(N4CCOCC4)cc3)cc2)nc1C` [Example 1], for which the “Degree of order S” value in series [1] is recorded as 0,64.
As to `CN(C)c1ccc(N=Nc2ccc(-n3nc4c(n3)CCCC4)cc2)cc1` [Example 2], the “Degree of order S” value in series [1] is listed as 0,71. For the same compound, the “Solubility L” value in series [2] was 1,4%.
As for `CCCCNc1ccc(N=Nc2ccc(N=Nc3ccc(-n4nc5ccc(C)cc5n4)c(C)c3)c(C)c2)cc1` [Example 22], in series [1], the “Degree of order S” value is listed as 0,77. Further, the “Solubility L” value in series [2] is above 5%.
Turning to `CCCCN(C)c1ccc(N=Nc2cc(C)c(N=Nc3ccc(-n4nc5ccc(C)cc5n4)c(C)c3)cc2OC)cc1` [Example 29], the “Degree of order S” value in series [4] is on record as 0,71. Also, the “Solubility L” value in series [5] was 0,5%.
